According to US8133847B2, “Pyrido[2,3-B]pyrazine derivatives useful as herbicidal compounds” (Syngenta Limited, priority 2006, dated 2012):

Tests used:
Experiment in all cases: Example B1 herbicidal action, post-emergence, 96-cell seed trays, climatic chamber
Type in all cases: in vivo
[1] = system: Amaranthus retroflexus (AMARE); conditions: Application post-emergence, 1000 mg/l spray equivalent to 1000 g/ha, evaluated after 9 days
Procedure: (§1) Seeds of a variety of test species were sown in sterilised standard soil in seed trays each having 96 cells. After cultivation for 8 to 9 days cultivation (post-emergence) under controlled conditions in a climatic chamber (cultivation at 23/17° C., day/night; 13 hours light; 50-60% humidity), the plants were treated with an aqueous spray solution of 1000 mg/l of the active ingredient dissolved in 10% DMSO (dimethyl sulfoxide, CAS RN 67-68-5) as a solvent, equivalent to 1000 g/ha. The plants were grown in the climatic chamber after application at (24/19° C., day/night; 13 hours light; 50-60% humidity) and watered twice daily. After 9 days until the test was evaluated (100=total damage to plant, 0=no damage to plant)

Solanum nigrum (SOLNI) = conditions: Application post-emergence, 1000 mg/l spray equivalent to 1000 g/ha, evaluated after 9 days (100=total damage to plant, 0=no damage to plant)
Procedure: as §1

Stellaria media (STEME) = conditions: Application post-emergence, 1000 mg/l spray equivalent to 1000 g/ha, evaluated after 9 days (100=total damage to plant, 0=no damage to plant)
Procedure: as §1

[2] = system: Nasturtium officinale (NAAOF); design: scale not given here; conditions: Application post-emergence, 1000 mg/l spray equivalent to 1000 g/ha, evaluated after 9 days (100=total damage to plant, 0=no damage to plant)
Procedure: as §1

Row | Compound | damage to plant, Amaranthus retroflexus (AMARE) [1] | damage to plant, Solanum nigrum (SOLNI) (Solanum nigrum (SOLNI)) | damage to plant, Stellaria media (STEME) (Stellaria media (STEME)) | damage to plant, Nasturtium officinale (NAAOF) [2]
1 | O=c1[nH]c2nccnc2c(O)c1-c1ccc(Cl)cc1Cl [Compound A1] | 0 | 0 | 7 | 5
2 | O=c1[nH]c2nccnc2c(O)c1-c1ccccc1Cl [Compound A2] | 6 | 0 | 2 | 2
3 | O=c1[nH]c2nccnc2c(O)c1-c1cc(Cl)ccc1Cl [Compound A3] | 8 | 0 | 3 | 4
4 | O=c1[nH]c2nccnc2c(O)c1-c1cccc(Cl)c1Cl [Compound A4] | 5 | 2 | 1 | 2
5 | O=c1[nH]c2nccnc2c(O)c1-c1c(Cl)cccc1Cl [Compound A5] | 3 | 3 | 3 | 6
6 | Cc1ccccc1-c1c(O)c2nccnc2[nH]c1=O [Compound A6] | 0 | 5 | 0 | 0
7 | O=c1[nH]c2nccnc2c(O)c1-c1ccccc1C(F)(F)F [Compound A8] | 5 | 0 | 2 | 7
8 | COc1c(Cl)cc(Cl)cc1-c1c(O)c2nccnc2[nH]c1=O [Compound A9] | 7 | 4 | 8 | 3
9 | O=c1[nH]c2nccnc2c(O)c1-c1ccc(F)cc1Cl [Compound A10] | 9 | 0 | 2 | 2
10 | O=c1[nH]c2nccnc2c(O)c1-c1ccccc1OC(F)(F)F [Compound A13] | 5 | 0 | 3 | 0
11 | O=c1[nH]c2nccnc2c(O)c1-c1c(Cl)cc(C(F)(F)F)cc1Cl [Compound A14] | 6 | 0 | 7 | 7
12 | O=c1[nH]c2nccnc2c(O)c1-c1ccccc1F [Compound A15] | 0 | 0 | 0 | 2
13 | O=c1[nH]c2nccnc2c(O)c1-c1ccc(F)cc1C(F)(F)F [Compound A17] | 8 | 5 | 5 | 7
14 | O=c1[nH]c2nccnc2c(O)c1-c1ccc(F)cc1Br [Compound A18] | 6 | 6 | 4 | 9
15 | O=c1[nH]c2nccnc2c(O)c1-c1cc(Cl)ccc1C(F)(F)F [Compound A19] | 6 | 7 | 5 | 5
16 | COc1ccc(-c2c(O)c3nccnc3[nH]c2=O)c(OC)c1 [Compound A20] |  |  | 0 | 2

Row | Compound | damage to plant, Amaranthus retroflexus (AMARE) [1] | damage to plant, Solanum nigrum (SOLNI) (Solanum nigrum (SOLNI)) | damage to plant, Stellaria media (STEME) (Stellaria media (STEME)) | damage to plant, Nasturtium officinale (NAAOF) [2]
17 | O=c1[nH]c2nccnc2c(O)c1-c1c(Cl)ccc(Cl)c1Cl [Compound A21] | 7 | 5 | 3 | 6
18 | O=c1[nH]c2ncc(Br)nc2c(O)c1-c1c(Cl)cccc1Cl [Compound A26] | 0 | 0 | 2 | 0
19 | O=c1[nH]c2ncc(Cl)nc2c(O)c1-c1c(Cl)cccc1Cl [Compound A27] | 0 | 0 | 2 | 0
20 | O=c1[nH]c2nccnc2c(O)c1-c1cc(Cl)cc(Cl)c1Cl [Compound A28] | 2 | 0 | 2 | 3
21 | O=c1[nH]c2nccnc2c(O)c1-c1ccc2ccccc2c1 [Compound A29] | 2 | 2 | 3 | 0
22 | Cc1cc(C)c(-c2c(O)c3nccnc3[nH]c2=O)c(C)c1 [Compound A30] | 7 | 0 | 4 | 3
23 | O=c1[nH]c2nccnc2c(O)c1-c1c(Cl)cccc1C(F)(F)F [Compound A31] | 5 | 0 | 3 | 3
24 | O=c1[nH]c2nccnc2c(O)c1-c1cccc(C(F)(F)F)c1Cl [Compound A32] | 0 | 2 | 0 | 0
25 | Cc1ccc(Cl)c(-c2c(O)c3nccnc3[nH]c2=O)c1F [Compound A33] | 4 | 3 | 3 | 2
26 | O=c1[nH]c2nccnc2c(O)c1-c1cc(C(F)(F)F)ccc1Cl [Compound A34] | 6 | 2 | 4 | 4
27 | Cc1ccc(F)c(-c2c(O)c3nccnc3[nH]c2=O)c1Cl [Compound A35] | 4 | 4 | 0 | 3
28 | CC(=O)Oc1c(-c2ccc(Cl)cc2Cl)c(=O)[nH]c2nccnc12 [Compound B1] | 8 | 0 | 3 | 0
29 | CC(C)C(=O)Oc1c(-c2ccc(F)cc2Cl)c(=O)[nH]c2nccnc12 [Compound B2] | 5 | 0 | 0 | 0
30 | CCC(=O)Oc1c(-c2ccc(F)cc2Cl)c(=O)[nH]c2nccnc12 [Compound B3] | 8 | 0 | 2 | 0
31 | CCn1c(=O)c(-c2ccccc2OC(F)(F)F)c(O)c2nccnc21 [Compound D5] | 3 |  | 6 | 7
